Test results reported in US20210255193A1, “LYSINE REACTIVE PROBES AND USES THEREOF” (The Scripps Research Institute, priority 2017, published 2021).
Blank lines part the entries; values can stand above or below the compound they belong to.

Columns and labels:
Assay in all cases: competitive isoTOP-ABPP
Format in all cases: binding
[1] = target: T1, ARL6IP1 ADP-ribosylation factor-like protein 6-interacting (Homo sapiens, UniProt Q15041); settings: for isoTOP-ABPP ratio (R) at liganded lysine Q15041_K188: sol, 231; for R value (DMSO/fragment) for probe 1 labeling: Q15041_K188
T1 construct: isoTOP-ABPP experiments performed in cell lysates (in vitro); endogenous in cells; host or cells: soluble proteome of human cancer cell lines (MDA-MB-231; Ramos and Jurkat also prepared)
T1 sequence (Q15041 whole entry, the tested form may be a part): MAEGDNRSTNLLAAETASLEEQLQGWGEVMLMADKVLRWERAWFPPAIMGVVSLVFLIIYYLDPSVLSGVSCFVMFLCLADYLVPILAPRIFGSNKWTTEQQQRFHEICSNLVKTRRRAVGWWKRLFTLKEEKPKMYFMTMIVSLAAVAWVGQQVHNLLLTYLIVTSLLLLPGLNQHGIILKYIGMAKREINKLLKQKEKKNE
In short: (§1)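 Competition format: fragment (50 μM activated ester, 100 μM guanidinylating agent) versus vehicle in lysate, then lysine probe STP-alkyne at 0.1 mM for 1 h. Quantitation by light/heavy TEV-tag MS1 peak areas, reported as R.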

[2] = target: T2, AKR1C3 Aldo-keto reductase family 1 member C3 (Homo sapiens, UniProt P42330); settings: for isoTOP-ABPP ratio (R) at liganded lysine P42330_K270: sol, 231
T2 construct: isoTOP-ABPP experiments performed in cell lysates (in vitro); endogenous in cells; host or cells: soluble proteome of human cancer cell lines (MDA-MB-231; Ramos and Jurkat also prepared)
T2 sequence (P42330 1-323): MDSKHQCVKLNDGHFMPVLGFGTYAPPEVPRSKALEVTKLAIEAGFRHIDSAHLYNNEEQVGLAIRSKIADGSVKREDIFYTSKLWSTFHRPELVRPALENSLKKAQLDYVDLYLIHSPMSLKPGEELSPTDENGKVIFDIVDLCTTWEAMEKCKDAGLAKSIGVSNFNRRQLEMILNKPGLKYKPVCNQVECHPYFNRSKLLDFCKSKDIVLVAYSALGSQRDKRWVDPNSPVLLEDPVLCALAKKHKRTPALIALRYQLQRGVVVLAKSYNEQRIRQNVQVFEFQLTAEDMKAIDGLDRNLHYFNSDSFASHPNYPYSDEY
In short: as §1

[3] = target: T3, ERO1L ERO1-like protein alpha (Homo sapiens, UniProt Q96HE7); settings: for isoTOP-ABPP ratio (R) at liganded lysine Q96HE7_K413: sol, 231; for R value (DMSO/fragment) for probe 1 labeling: Q96HE7_K413; for isoTOP-ABPP ratio, lysine Q96HE7_K413: possible other lysine Q86YB8_K412
T3 construct: isoTOP-ABPP experiments performed in cell lysates (in vitro); endogenous in cells; host or cells: soluble proteome of human cancer cell lines (MDA-MB-231; Ramos and Jurkat also prepared)
T3 sequence (Q96HE7 24-468): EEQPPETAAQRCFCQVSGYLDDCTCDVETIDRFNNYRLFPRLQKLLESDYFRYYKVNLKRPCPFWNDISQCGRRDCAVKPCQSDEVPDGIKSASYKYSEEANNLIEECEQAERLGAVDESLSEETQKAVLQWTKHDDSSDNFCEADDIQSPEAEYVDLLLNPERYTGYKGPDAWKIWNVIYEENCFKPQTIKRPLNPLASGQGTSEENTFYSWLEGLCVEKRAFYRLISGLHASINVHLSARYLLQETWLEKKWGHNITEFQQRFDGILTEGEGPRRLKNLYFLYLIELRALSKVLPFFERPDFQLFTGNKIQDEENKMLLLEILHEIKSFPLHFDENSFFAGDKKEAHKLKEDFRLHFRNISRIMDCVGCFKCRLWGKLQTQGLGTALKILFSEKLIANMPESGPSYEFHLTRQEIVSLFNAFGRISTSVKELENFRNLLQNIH
In short: as §1

[4] = target: T4, TSTA3 GDP-L-fucose synthase (Homo sapiens, UniProt Q13630); settings: for isoTOP-ABPP ratio (R) at liganded lysine Q13630_K108: sol, 231
T4 construct: isoTOP-ABPP experiments performed in cell lysates (in vitro); endogenous in cells; host or cells: soluble proteome of human cancer cell lines (MDA-MB-231, Ramos, Jurkat)
T4 sequence (Q13630 whole entry): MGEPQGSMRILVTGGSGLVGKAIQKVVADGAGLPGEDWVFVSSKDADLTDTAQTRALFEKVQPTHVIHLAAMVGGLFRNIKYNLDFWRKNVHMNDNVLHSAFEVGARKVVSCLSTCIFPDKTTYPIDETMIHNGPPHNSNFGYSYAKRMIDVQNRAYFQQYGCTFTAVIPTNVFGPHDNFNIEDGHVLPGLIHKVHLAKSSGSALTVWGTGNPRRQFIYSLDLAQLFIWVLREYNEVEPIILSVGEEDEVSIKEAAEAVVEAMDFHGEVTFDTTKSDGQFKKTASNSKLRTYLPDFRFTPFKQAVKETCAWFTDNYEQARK
In short: as §1

[5] = target: T5, NUDT22 Nucleoside diphosphate-linked moiety X motif 22 (Homo sapiens, UniProt Q9BRQ3); settings: for isoTOP-ABPP ratio (R) at liganded lysine Q9BRQ3_K60: sol, 231; for R value (DMSO/fragment) for probe 1 labeling: Q9BRQ3_K60
T5 construct: isoTOP-ABPP experiments performed in cell lysates (in vitro); endogenous in cells; host or cells: soluble proteome of human cancer cell lines (MDA-MB-231; Ramos and Jurkat also prepared)
T5 sequence (Q9BRQ3 1-303): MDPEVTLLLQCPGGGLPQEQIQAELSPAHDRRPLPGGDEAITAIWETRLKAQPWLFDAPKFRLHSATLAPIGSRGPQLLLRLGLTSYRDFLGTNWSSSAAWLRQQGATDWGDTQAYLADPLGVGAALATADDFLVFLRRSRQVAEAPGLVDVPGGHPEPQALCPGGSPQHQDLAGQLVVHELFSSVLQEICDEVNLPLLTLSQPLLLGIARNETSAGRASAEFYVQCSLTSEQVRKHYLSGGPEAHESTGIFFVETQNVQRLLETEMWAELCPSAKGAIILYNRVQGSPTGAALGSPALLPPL
In short: as §1

SMILES: CC(C)(C)OC(=O)NCCCC(=O)Oc1ccc([N+](=O)[O-])cc1[N+](=O)[O-] [fragment 41, 2,4-Dinitrophenyl 4-((tert-butoxycarbonyl)amino)butanoate]
isoTOP-ABPP ratio (R) at liganded lysine Q15041_K188 ([1]; 50 uM, in vitro): 1.3
isoTOP-ABPP ratio (R) at liganded lysine P42330_K270 ([2]; 50 uM, in vitro): 0.7
isoTOP-ABPP ratio (R) at liganded lysine Q96HE7_K413 ([3]; 50 uM, in vitro): 1.7
isoTOP-ABPP ratio (R) at liganded lysine Q13630_K108 ([4]; 50 uM, in vitro): 1.3
isoTOP-ABPP ratio (R) at liganded lysine Q9BRQ3_K60 ([5]; 50 uM, in vitro): 20.0

SMILES: O=C(Oc1ccc([N+](=O)[O-])cc1[N+](=O)[O-])c1ccc(-c2ccccc2)cc1 [fragment 37, 2,4-Dinitrophenyl [1,1′-biphenyl]-4-carboxylate]
isoTOP-ABPP ratio (R) at liganded lysine Q15041_K188 ([1]; 50 uM, in vitro): 1.8
isoTOP-ABPP ratio (R) at liganded lysine P42330_K270 ([2]; 50 uM, in vitro): 0.8
isoTOP-ABPP ratio (R) at liganded lysine Q96HE7_K413 ([3]; 50 uM, in vitro): 2.4
isoTOP-ABPP ratio (R) at liganded lysine Q13630_K108 ([4]; 50 uM, in vitro): 2.9
isoTOP-ABPP ratio (R) at liganded lysine Q9BRQ3_K60 ([5]; 50 uM, in vitro): 1.0

R value (DMSO/fragment) for probe 1 labeling ([1]; 50 uM, 231 sol, in vitro): 1.8
R value (DMSO/fragment) for probe 1 labeling ([2]; P42330_K270, 50 uM, 231 sol, in vitro): 1.4
R value (DMSO/fragment) for probe 1 labeling ([3]; 50 uM, 231 sol, in vitro): 0.9
R value (DMSO/fragment) for probe 1 labeling ([5]; 50 uM, 231 sol, in vitro): 0.8
SMILES: O=C(Oc1c(F)c(F)c(F)c(F)c1F)C(c1ccccc1)c1ccccc1 [fragment 20, Pentafluorophenyl 2,2-diphenylacetate]

SMILES: O=C(Oc1ccc([N+](=O)[O-])cc1[N+](=O)[O-])c1ccc2ccccc2n1 [fragment 35, 2,4-Dinitrophenyl quinoline-2-carboxylate]
isoTOP-ABPP ratio (R) at liganded lysine Q15041_K188 ([1]; 50 uM, in vitro): 1.4
isoTOP-ABPP ratio (R) at liganded lysine P42330_K270 ([2]; 50 uM, in vitro): 0.6
isoTOP-ABPP ratio (R) at liganded lysine Q96HE7_K413 ([3]; 50 uM, in vitro): 2.2
isoTOP-ABPP ratio (R) at liganded lysine Q9BRQ3_K60 ([5]; 50 uM, in vitro): 1.1

SMILES: O=C(ON1C(=O)CCC1=O)c1cc(C(F)(F)F)cc(C(F)(F)F)c1 [fragment 46, 3,5-Bis(trifluoromethyl)benzoic acid NHS ester]
isoTOP-ABPP ratio, lysine Q15041_K188 ([1]; 50 uM_231_sol_in vitro): 1.2
isoTOP-ABPP ratio, lysine Q96HE7_K413 ([3]; 50 uM_231_sol_in vitro): 6.5
isoTOP-ABPP ratio, lysine Q13630_K108 ([4]; 50 uM_231_sol_in vitro): 2.7
isoTOP-ABPP ratio, lysine Q9BRQ3_K60 ([5]; 50 uM_231_sol_in vitro): 0.9

R value (DMSO/fragment) for probe 1 labeling ([1]; 50 uM, 231 sol, in vitro): 3.9
R value (DMSO/fragment) for probe 1 labeling ([3]; 50 uM, 231 sol, in vitro): 1.4
R value (DMSO/fragment) for probe 1 labeling ([4]; Q13630_K108, 50 uM, 231 sol, in vitro): 1.0
R value (DMSO/fragment) for probe 1 labeling ([5]; 50 uM, 231 sol, in vitro): 0.8
SMILES: O=C(Oc1c(F)c(F)c(F)c(F)c1F)c1cc(C(F)(F)F)cc(C(F)(F)F)c1 [fragment 21, Pentafluorophenyl 3,5-bis(trifluoromethyl)benzoate]

SMILES: Cn1cc(CC(=O)Oc2ccc([N+](=O)[O-])cc2[N+](=O)[O-])c2ccccc21 [fragment 32, 2,4-Dinitrophenyl 2-(1-methyl-1H-indol-3-yl)acetate]
isoTOP-ABPP reactivity ratio at lysine Q15041_K188 ([1]; 50 uM, 231 sol, in vitro): 5.9
isoTOP-ABPP reactivity ratio at lysine Q96HE7_K413 ([3]; 50 uM, 231 sol, in vitro): 20.0
isoTOP-ABPP reactivity ratio at lysine Q9BRQ3_K60 ([5]; 50 uM, 231 sol, in vitro): 20.0

isoTOP-ABPP ratio, lysine Q15041_K188 ([1]; 100 uM_231_sol_in vitro): 3.4
isoTOP-ABPP ratio, lysine P42330_K270 ([2]; 100 uM_231_sol_in vitro, possible other lysine P52895_K270, P17516_K270, Q04828_K270): 0.7
isoTOP-ABPP ratio, lysine Q96HE7_K413 ([3]; 100 uM_231_sol_in vitro): 1.4
isoTOP-ABPP ratio, lysine Q13630_K108 ([4]; 100 uM_231_sol_in vitro): 1.0
isoTOP-ABPP ratio, lysine Q9BRQ3_K60 ([5]; 100 uM_231_sol_in vitro): 1.0
SMILES: CC(C)(C)OC(=O)N=C(NC(=O)OC(C)(C)C)n1cccn1 [fragment 50, reference compound]
